In the NIST ThermoML archive (doi:10.1016/j.jct.2012.02.038):
“And” between values parts separate entries of the source, which are not always exact repeats. Equal entries are not always repeated.

Columns and labels:
[1] = refractive index (other wavelength) (dimensionless); conditions: 101.3 kPa, Liquid, Wavelength=632.8 nm, Minimum deviation technique
[2] = refractive index (other wavelength) (dimensionless); xn = mol fraction of the nth substance listed; conditions: 101.3 kPa, Liquid, Wavelength=632.8 nm, Minimum deviation technique

COC(=O)CCCCC(=O)OC [dimethyl 1,6-hexanedioate]
[1]
Conditions | refractive index
293.15 K | 1.4275
294.14 K | 1.4271
295.19 K | 1.4267
296.25 K | 1.4263
298.35 K | 1.4254
299.4 K | 1.425 and 1.4249
300.18 K | 1.4246
301 K | 1.4243
301.84 K | 1.4239
302.58 K | 1.4236
303.19 K | 1.4234
303.88 K | 1.4231

COC(=O)CCCCC(=O)OC [dimethyl 1,6-hexanedioate] + CCCCCCCC
[2], 299.79 K
Conditions | refractive index
x1 = 0.099 | 1.3955
x1 = 0.2 | 1.3985
x1 = 0.302 | 1.4014
x1 = 0.4 | 1.4047
x1 = 0.5 | 1.408
x1 = 0.602 | 1.4113
x1 = 0.701 | 1.4146
x1 = 0.8 | 1.418
x1 = 0.899 | 1.4214

COC(=O)CCCCC(=O)OC [dimethyl 1,6-hexanedioate] + CCCCCCCCC
[2], 305.07 K
Conditions | refractive index
x1 = 0.101 | 1.4
x1 = 0.2 | 1.4017
x1 = 0.295 | 1.404
x1 = 0.39 | 1.406
x1 = 0.492 | 1.4085
x1 = 0.594 | 1.411
x1 = 0.713 | 1.4143
x1 = 0.79 | 1.4163
x1 = 0.902 | 1.4197

CCCCCCCCC [nonane]
[1]
Conditions | refractive index
299.25 K | 1.4015
300.07 K | 1.4011
300.85 K | 1.4007
301.85 K | 1.4003
302.57 K | 1.3999
303.3 K | 1.3995
303.83 K | 1.3993

CCCCCCCC [octane]
[1]
Conditions | refractive index
293.23 K | 1.3964
294.23 K | 1.3959
295.29 K | 1.3954
296.27 K | 1.3949
297.41 K | 1.3944
298.48 K | 1.3939
299.5 K | 1.3934
